Source: US20240108006A1, “PESTICIDALLY ACTIVE HETEROAROMATIC COMPOUNDS” (SYNGENTA CROP PROTECTION AG, priority 2021, published 2024)

What was measured:
Format in all cases: in vivo
Plutella xylostella = assay: Example B8: Plutella xylostella (diamond back moth), artificial diet 24-well, eggs; conditions: 192 h, application rate of 200 ppm, 8 days after infestation, read-out: effect in at least one of the two categories (mortality or growth inhibition)
Summary of the method: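 Artificial diet in 24-well plates treated with aqueous dilutions of DMSO stock (10,000 ppm stock) and dried, then infested with Plutella eggs. Mortality and growth inhibition scored versus untreated samples 8 days after infestation.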

Chilo suppressalis = assay: Example B1: Chilo suppressalis (striped rice stemborer), artificial diet, L2 larvae; conditions: 144 h, application rate of 200 ppm, 6 days after infestation, read-out: control in at least one of the three categories (mortality, anti-feedant effect, or growth inhibition)
Summary of the method: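 Artificial diet was treated with aqueous test solutions made from 10,000 ppm DMSO stocks, dried, then infested with L2 larvae (6-8 per well). Mortality, anti-feeding effect and growth inhibition were scored against untreated samples 6 days after infestation, and control was counted when any category exceeded untreated.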

Spodoptera littoralis = assay: Example B9: Spodoptera littoralis (Egyptian cotton leaf worm), cotton leaf discs, L1 larvae; conditions: foliar, 72 h, application rate of 200 ppm, 3 days after infestation, read-out: control in at least one of the three categories (mortality, anti-feedant effect, or growth inhibition)
Summary of the method: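 Cotton leaf discs on agar sprayed with aqueous test solutions from 10,000 ppm DMSO stocks, dried, then infested with five L1 larvae. Mortality, anti-feeding and growth inhibition scored against untreated samples 3 days after infestation.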

Diabrotica balteata = assay: Example B2: Diabrotica balteata (corn root worm), maize sprouts, L2 larvae; conditions: 96 h, application rate of 200 ppm, 4 days after infestation, read-out: control in at least one of the two categories (mortality or growth inhibition)
Protocol: Example B2: Diabrotica balteata (Corn Root Worm)
Maize sprouts placed onto an agar layer in 24-well microtiter plates were treated with aqueous test solutions prepared from 10,000 ppm DMSO stock solutions by spraying. After drying, the plates were infested with L2 larvae (6 to 10 per well). The samples were assessed for mortality and growth inhibition in comparison to untreated samples 4 days after infestation.
The following compounds gave an effect of at least 80% control in at least one of the two categories (mortality or growth inhibition) at an application rate of 200 ppm: […]

Myzus persicae = assay: Example B7: Myzus persicae (green peach aphid), intrinsic activity, sucrose solution 24-well; conditions: 120 h, application rate of 12.5 ppm, 5 days after infestation, read-out: control (mortality)
Source text: Example B7: Myzus persicae (Green Peach Aphid). Intrinsic Activity
Test compounds prepared from 10,000 ppm DMSO stock solutions were applied by pipette into 24-well microtiter plates and mixed with sucrose solution. The plates were closed with a stretched Parafilm. A plastic stencil with 24 holes was placed onto the plate and infested pea seedlings were placed directly on the Parafilm. The infested plate was closed with a gel blotting paper and another plastic stencil and then turned upside down. The samples were assessed for mortality 5 days after infestation.
The following compounds gave an effect of at least 80% control at an application rate of 12.5 ppm: […]

C[C@H](NC(=O)Nc1ccc(C(F)(F)F)cc1C(F)(F)F)c1ncnn1-c1ccc(C#N)cn1 [Example P13, 1-[2,4-bis(trifluoromethyl)phenyl]-3-[(1S)-1-[2-(5-cyano-2-pyridyl)-1,2,4-triazol-3-yl]ethyl]urea]
≥ 80%: percent effect (mortality or growth inhibition) at 200 ppm (Plutella xylostella) | percent control (mortality, anti-feedant effect or growth inhibition) at 200 ppm (Chilo suppressalis) | percent control (mortality, anti-feedant effect or growth inhibition) at 200 ppm (Spodoptera littoralis) | percent control (mortality or growth inhibition) at 200 ppm (Diabrotica balteata)

C[C@H](NC(=O)Nc1cc(C(F)(F)F)ccc1Cl)c1ncnn1-c1ncccn1 [Example P14, 1-[2-chloro-5-(trifluoromethyl)phenyl]-3-[(1S)-1-(2-pyrimidin-2-yl-1,2,4-triazol-3-yl)ethyl]urea]
≥ 80%: percent effect (mortality or growth inhibition) at 200 ppm (Plutella xylostella) | percent control (mortality, anti-feedant effect or growth inhibition) at 200 ppm (Chilo suppressalis) | percent control (mortality, anti-feedant effect or growth inhibition) at 200 ppm (Spodoptera littoralis) | percent control (mortality or growth inhibition) at 200 ppm (Diabrotica balteata)

C[C@H](NC(=O)Nc1ccc(Cl)c(OC(F)(F)C(F)F)c1)c1ncnn1-c1ncccn1 [Example P35, 1-[4-chloro-3-(1,1,2,2-tetrafluoroethoxy)phenyl]-3-[(1S)-1-(2-pyrimidin-2-yl-1,2,4-triazol-3-yl)ethyl]urea]
≥ 80%: percent effect (mortality or growth inhibition) at 200 ppm (Plutella xylostella) | percent control (mortality, anti-feedant effect or growth inhibition) at 200 ppm (Chilo suppressalis) | mortality at 12.5 ppm (Myzus persicae) | percent control (mortality, anti-feedant effect or growth inhibition) at 200 ppm (Spodoptera littoralis) | percent control (mortality or growth inhibition) at 200 ppm (Diabrotica balteata)

C[C@H](NC(=O)Nc1cc(Cl)c(Cl)cc1Cl)c1ncnn1-c1ncccn1 [Example P43, 1-[(1S)-1-(2-pyrimidin-2-yl-1,2,4-triazol-3-yl)ethyl]-3-(2,4,5-trichlorophenyl)urea]
≥ 80%: percent effect (mortality or growth inhibition) at 200 ppm (Plutella xylostella) | percent control (mortality, anti-feedant effect or growth inhibition) at 200 ppm (Chilo suppressalis) | percent control (mortality, anti-feedant effect or growth inhibition) at 200 ppm (Spodoptera littoralis) | percent control (mortality or growth inhibition) at 200 ppm (Diabrotica balteata)

C[C@H](NC(=O)Nc1cc(C(F)(F)F)c(Cl)cc1Br)c1ncnn1-c1ncccn1 [Example P48, 1-[2-bromo-4-chloro-5-(trifluoromethyl)phenyl]-3-[(1S)-1-(2-pyrimidin-2-yl-1,2,4-triazol-3-yl)ethyl]urea]
≥ 80%: percent effect (mortality or growth inhibition) at 200 ppm (Plutella xylostella) | percent control (mortality, anti-feedant effect or growth inhibition) at 200 ppm (Chilo suppressalis) | mortality at 12.5 ppm (Myzus persicae) | percent control (mortality, anti-feedant effect or growth inhibition) at 200 ppm (Spodoptera littoralis) | percent control (mortality or growth inhibition) at 200 ppm (Diabrotica balteata)

C[C@H](NC(=O)N1CCc2cc(C(F)(F)F)ccc21)c1ncnn1-c1ncccn1 [Example P57, N-[(1S)-1-(2-pyrimidin-2-yl-1,2,4-triazol-3-yl)ethyl]-5-(trifluoromethyl)indoline-1-carboxamide]
≥ 80%: percent effect (mortality or growth inhibition) at 200 ppm (Plutella xylostella) | mortality at 12.5 ppm (Myzus persicae) | percent control (mortality, anti-feedant effect or growth inhibition) at 200 ppm (Spodoptera littoralis) | percent control (mortality or growth inhibition) at 200 ppm (Diabrotica balteata)

C[C@H](NC(=O)N(C)c1ccc(Cl)cc1Cl)c1ncnn1-c1ncccn1 [Example P114, 1-(2,4-dichlorophenyl)-1-methyl-3-[(1S)-1-(2-pyrimidin-2-yl-1,2,4-triazol-3-yl)ethyl]urea]
≥ 80%: percent effect (mortality or growth inhibition) at 200 ppm (Plutella xylostella) | percent control (mortality, anti-feedant effect or growth inhibition) at 200 ppm (Chilo suppressalis) | percent control (mortality, anti-feedant effect or growth inhibition) at 200 ppm (Spodoptera littoralis) | percent control (mortality or growth inhibition) at 200 ppm (Diabrotica balteata)

C[C@@H](NC(=O)Nc1cc(OC(F)(F)C(F)F)c(Cl)cc1Cl)c1nccnc1-c1ncccn1 [Example P136, 1-[2,4-dichloro-5-(1,1,2,2-tetrafluoroethoxy)phenyl]-3-[(1R)-1-(3-pyrimidin-2-ylpyrazin-2-yl)ethyl]urea]
≥ 80%: percent effect (mortality or growth inhibition) at 200 ppm (Plutella xylostella) | percent control (mortality, anti-feedant effect or growth inhibition) at 200 ppm (Chilo suppressalis) | percent control (mortality or growth inhibition) at 200 ppm (Diabrotica balteata)

C[C@H](NC(=O)Nc1cc(C(F)(F)F)c(Cl)cc1Cl)c1ncnn1-c1ncc(C#N)s1 [Example P140, 1-[(1S)-1-[2-(5-cyanothiazol-2-yl)-1,2,4-triazol-3-yl]ethyl]-3-[2,4-dichloro-5-(trifluoromethyl)phenyl]urea]
≥ 80%: percent effect (mortality or growth inhibition) at 200 ppm (Plutella xylostella) | percent control (mortality, anti-feedant effect or growth inhibition) at 200 ppm (Chilo suppressalis) | percent control (mortality, anti-feedant effect or growth inhibition) at 200 ppm (Spodoptera littoralis) | percent control (mortality or growth inhibition) at 200 ppm (Diabrotica balteata)

CC(NC(=O)Nc1cc(OC(F)(F)C(F)F)c(Cl)cc1Cl)c1ncnn1-c1ncccn1 (centres unmarked) [Example P177, 1-[2,4-dichloro-5-(1,1,2,2-tetrafluoroethoxy)phenyl]-3-[1-(2-pyrimidin-2-yl-1,2,4-triazol-3-yl)ethyl]urea]
≥ 80%: percent effect (mortality or growth inhibition) at 200 ppm (Plutella xylostella) | percent control (mortality, anti-feedant effect or growth inhibition) at 200 ppm (Chilo suppressalis) | mortality at 12.5 ppm (Myzus persicae) | percent control (mortality, anti-feedant effect or growth inhibition) at 200 ppm (Spodoptera littoralis) | percent control (mortality or growth inhibition) at 200 ppm (Diabrotica balteata)

C[C@H](NC(=O)Nc1cc(C(F)(F)F)c(Cl)cc1Cl)c1ncnn1-c1ncccn1 [Example P178, 1-[2,4-dichloro-5-(trifluoromethyl)phenyl]-3-[(1S)-1-(2-pyrimidin-2-yl-1,2,4-triazol-3-yl)ethyl]urea]
≥ 80%: percent effect (mortality or growth inhibition) at 200 ppm (Plutella xylostella) | percent control (mortality, anti-feedant effect or growth inhibition) at 200 ppm (Chilo suppressalis) | mortality at 12.5 ppm (Myzus persicae) | percent control (mortality, anti-feedant effect or growth inhibition) at 200 ppm (Spodoptera littoralis) | percent control (mortality or growth inhibition) at 200 ppm (Diabrotica balteata)

C[C@H](NC(=O)Nc1cc(OC(F)(F)C(F)C(F)(F)F)c(Cl)cc1Cl)c1ncnn1-c1ncccn1 (stereo partly drawn) [Example P223, 1-[2,4-dichloro-5-(1,1,2,3,3,3-hexafluoropropoxy)phenyl]-3-[(1S)-1-(2-pyrimidin-2-yl-1,2,4-triazol-3-yl)ethyl]urea]
≥ 80%: percent effect (mortality or growth inhibition) at 200 ppm (Plutella xylostella) | percent control (mortality, anti-feedant effect or growth inhibition) at 200 ppm (Chilo suppressalis) | percent control (mortality, anti-feedant effect or growth inhibition) at 200 ppm (Spodoptera littoralis) | percent control (mortality or growth inhibition) at 200 ppm (Diabrotica balteata)

C[C@H](NC(=O)Nc1cnc(C(F)(F)F)cc1Cl)c1nccnc1-c1ccc(C#N)cn1 [Example P250, 1-[4-chloro-6-(trifluoromethyl)-3-pyridyl]-3-[(1S)-1-[3-(5-cyano-2-pyridyl)pyrazin-2-yl]ethyl]urea]
≥ 80%: percent effect (mortality or growth inhibition) at 200 ppm (Plutella xylostella) | percent control (mortality, anti-feedant effect or growth inhibition) at 200 ppm (Chilo suppressalis) | mortality at 12.5 ppm (Myzus persicae) | percent control (mortality, anti-feedant effect or growth inhibition) at 200 ppm (Spodoptera littoralis)

CC(NC(=O)Nc1cc(OC(F)(F)C(F)F)c(Cl)cc1Cl)c1nccnc1-n1nccn1 (centres unmarked) [Example P258, 1-[2,4-dichloro-5-(1,1,2,2-tetrafluoroethoxy)phenyl]-3-[1-[3-(triazol-2-yl)pyrazin-2-yl]ethyl]urea]
≥ 80%: percent effect (mortality or growth inhibition) at 200 ppm (Plutella xylostella) | percent control (mortality, anti-feedant effect or growth inhibition) at 200 ppm (Chilo suppressalis) | percent control (mortality or growth inhibition) at 200 ppm (Diabrotica balteata)

CC(NC(=O)Nc1ccc(Br)cc1OC(F)F)c1nccnc1-n1nccn1 (centres unmarked) [Example P261, 1-[4-bromo-2-(difluoromethoxy)phenyl]-3-[1-[3-(triazol-2-yl)pyrazin-2-yl]ethyl]urea]
≥ 80%: percent effect (mortality or growth inhibition) at 200 ppm (Plutella xylostella) | percent control (mortality, anti-feedant effect or growth inhibition) at 200 ppm (Chilo suppressalis) | percent control (mortality, anti-feedant effect or growth inhibition) at 200 ppm (Spodoptera littoralis) | percent control (mortality or growth inhibition) at 200 ppm (Diabrotica balteata)

C[C@H](NC(=O)Nc1cc(C(F)(F)F)c(Cl)cc1Br)c1ncnn1-c1cnccn1 [Example P279, 1-[2-bromo-4-chloro-5-(trifluoromethyl)phenyl]-3-[(1S)-1-(2-pyrazin-2-yl-1,2,4-triazol-3-yl)ethyl]urea]
≥ 80%: percent effect (mortality or growth inhibition) at 200 ppm (Plutella xylostella) | percent control (mortality, anti-feedant effect or growth inhibition) at 200 ppm (Chilo suppressalis) | percent control (mortality, anti-feedant effect or growth inhibition) at 200 ppm (Spodoptera littoralis) | percent control (mortality or growth inhibition) at 200 ppm (Diabrotica balteata)

C[C@H](NC(=O)Nc1cc(OC(F)(F)F)c(F)cc1Br)c1ncnn1-c1ncccn1 [Example P316, 1-[2-bromo-4-fluoro-5-(trifluoromethoxy)phenyl]-3-[(1S)-1-(2-pyrimidin-2-yl-1,2,4-triazol-3-yl)ethyl]urea]
≥ 80%: percent effect (mortality or growth inhibition) at 200 ppm (Plutella xylostella) | percent control (mortality, anti-feedant effect or growth inhibition) at 200 ppm (Chilo suppressalis) | mortality at 12.5 ppm (Myzus persicae) | percent control (mortality, anti-feedant effect or growth inhibition) at 200 ppm (Spodoptera littoralis)

C[C@H](NC(=O)Nc1cc(F)c(Cl)cc1Cl)c1ncnn1-c1ncccn1 [Example P380, 1-(2,4-dichloro-5-fluoro-phenyl)-3-[(1S)-1-(2-pyrimidin-2-yl-1,2,4-triazol-3-yl)ethyl]urea]
≥ 80%: percent effect (mortality or growth inhibition) at 200 ppm (Plutella xylostella) | percent control (mortality, anti-feedant effect or growth inhibition) at 200 ppm (Chilo suppressalis) | mortality at 12.5 ppm (Myzus persicae) | percent control (mortality, anti-feedant effect or growth inhibition) at 200 ppm (Spodoptera littoralis)
